Measurements reported in patent US7601754B2, “Flavonoid compounds as therapeutic antioxidants” (Antoxis Limited, priority 2002, dated 2009).
“And” between values parts separate entries of the source, which are not always exact repeats. Equal values may be shown once.

What was measured:
[1] = Kinetic measurements: stopped-flow ESR, reduction of galvinoxyl radical; type: physicochemical; details: for Second order rate constants (k2) for the reduction of galvinoxyl radical / reactivity with galvinoxyl (in words): ethanol; for Second order rate constants (k2) for the reduction of galvinoxyl radical: 20° C.±2° C., flavonoid 0.2 mM + galvinoxyl 0.2 mM, unit printed only in b437; for reactivity with galvinoxyl (in words): kinetics of reduction; for decrease in rate of reaction with galvinoxyl relative to quercetin: fold decrease, versus quercetin
Experimental: (§1) Within a biological system where a number of polyphenols may be present at similar concentrations, antioxidant efficacy may be predominantly governed by reaction kinetics rather than stoichiornetry. Consequently, the antioxidant potential of thirteen flavonoids and vitamin E were assessed and their kinetic and stochiometric reduction of a synthetic radical using stopped-flow electron spin resonance (ESR) spectroscopy has been compared. The radical used was galvinoxyl (Galv-O°), (2,6-di-tert-butyl-α-(3,5-di-tert-butyl-4-oxo-2,5-cyclohexadien-1-ylidene)-p-tolyloxy) shown below:
Galv-O°+Phenol-OH≈Galv-OH+phenol-O°
The process is governed by the O—H bond dissociation enthalpy of the donor.
Ethanolic solutions of flavonoid (0.2 mM) and galvinoxyl (0.2 mM) were de-oxygenated under a stream of nitrogen gas. Aliquots (6 ml) were transferred to Hamilton gas-tight syringes (10 ml) coupled to a pneumatic ram and connected to a two-stream ESR quartz flow-cell. In situ reaction at 20° C.±2° C. between the flavonoid and galvinoxyl was initiated by rapidly evacuating the syringes. […] Decay curves were obtained by operating in timesweep mode with the static field set at the resonance maximum of the galvinoxyl signal.

[2] = Stoichiometric measurements: ESR, reduction of excess galvinoxyl radical; type: physicochemical; details: galvinoxyl radicals reduced per molecule, ethanol, flavonoid 0.1 mM + galvinoxyl 0.5 mM, 5 minutes from mixing
Experimental: as §1
Ethanolic solutions of flavonoids (0.1 mM) were prepared. Aliquots (3 ml) of an ethanolic galvinoxyl solution (0.5 mM) were mixed with an equal volume of flavonoid solution then transferred to an ESR quartz cell. The spectra and reaction stoichiometry were evaluated. In brief, the spectra of the unreacted galvinoxyl were obtained 5 minutes from mixing, by which time equilibration was complete. The galvinoxyl concentrations remaining were calculated by double integration of the signal and comparing with the control experiment where ethanol was added to the galvinoxyl solution instead of flavonoid solution.
The stoichiometry of the reaction of these compounds with the galvinoxyl free radical was determined by adding the flavonoid, or vitamin E, to an excess of the radical and allowing the reaction to proceed to the endpoint.

[3] = system: rat liver microsomes from vitamin E-deficient rats; assay: Inhibition of TBARS production in rat liver microsomes from vitamin E-deficient rats; type: biochemical; details: for TBARS production (Mean): after 20 minutes incubation with Fe(II)-ADP/ascorbate, normalised to a tocopherol reading of 20, 30 minutes pre-incubation, higher reading = lower protection; for membrane protection against TBARS production (in words): over the 20 minute oxidation period
Experimental: Inhibition of TBARS production in rat liver microsomes from vitamin E-deficient rats by pre-incubation with target antioxidant and related compounds. Microsomes are subcellular fractions containing membrane fragments. In vitamin E-deficient rats, microsomes are especially prone to oxidative free radical damage. This can be quantified in terms of the production of thiobarbituric acid reactive substances (TBARS) which result from radical-mediated destruction of the polyunsaturated fatty acid constituents. Consequently, this is a useful biological model to determine the efficacy of phytochemicals as antioxidant membrane protectants. Vitamin E-deficient microsomal suspensions were incubated for 30 minutes with one of myricetin, sample A, sample B, sample C (as shown below) or d-alpha-tocopherol, or with a compound 9c, 9d, 9e, 9e*, 9f, 9g, 9g*, 9h, 9i* or 9j (prepared as described above in Examples 1 to 10). […] TBARS production was then measured by HPLC.

Solubility in octanol = type: physicochemical

| Molecule | Second order rate constants (k2) for the reduction of galvinoxyl radical [1] [mol^−1 dm^3 s^−1] | Reaction Stoichiometry for the reduction of galvinoxyl radical [2] | TBARS production (Mean) [3] | other results |
| --- | --- | --- | --- | --- |
| COc1ccc([C@@H]2CC(=O)c3c(O)cc(O)cc3O2)cc1O [Hesperitin] | 6 ± 0.5 | 0.20 ± 0.02 | – | reactivity with galvinoxyl (in words) [1]: little reactivity |
| Cc1c(C)c2c(c(C)c1O)CC[C@@](C)(CCC[C@H](C)CCC[C@H](C)CCCC(C)C)O2 [Vitamin E, d-(2R,4′R,8′R)-α-Tocopherol] | 524 ± 48 | 2.14 ± 0.12 | – | TBARS production (Mean) ([3]; listed as da-toc): 19.9996 and 20 |
| CCCCCCCCCCc1ccc2c(=O)c(O)c(-c3cc(O)c(O)cc3O)oc2c1 [compound 13g, 3,2′,4′,5′-tetrahydroxy-7-decyl-flavone] | – | – | 20.1401 | membrane protection against TBARS production (in words) [3]: good membrane protection |
| CCCCc1ccc2c(=O)c(O)c(-c3cc(O)c(O)c(O)c3)oc2c1 [9d, 7-Butyl-3-hydroxy-2-(3,4,5-trihydroxy-phenyl)-chromen-4-one] | – | – | 121.743 | – |
| CCCCCCCCc1ccc2c(=O)c(O)c(-c3cc(O)c(O)c(O)c3)oc2c1 [9f, 7-Octyl-3-hydroxy-2-(3,4,5-trihydroxy-phenyl)-chromen-4-one] | – | – | 46.1879 | – |
| O=c1c(O)c(-c2ccc(O)cc2O)oc2cc(O)cc(O)c12 [Morin] | 10134 ± 459 | 1.83 ± 0.01 | – | Second order rate constants (k2) for the reduction of galvinoxyl radical ([1]; listed as morin): 10134 mol^−1 dm^3 s^−1; reactivity with galvinoxyl (in words) [1]: fastest; increase in rate relative to kaempferol ([1]; fold increase, versus kaempferol): 8 fold; Reaction Stoichiometry for the reduction of galvinoxyl radical ([2]; listed as morin): 1.8 |
| CCCCCCCCc1cc2c(=O)c(O)c(-c3cc(O)c(O)c(O)c3)oc2cc1CC [compound 12, 7-Ethyl-3-hydroxy-6-octyl-2-(3,4,5-trihydroxy-phenyl)-chromen-4-one] | – | – | 53.98 | – |
| O=c1c(O)c(-c2cc(O)c(O)c(O)c2)oc2cc(O)ccc12 [Control A] | – | – | 158.348 | – |
| O=c1cc(-c2ccc(O)c(O)c2)oc2cc(O)cc(O)c12 [Luteolin] | 1212 ± 45 | 3.24 ± 0.01 | – | – |
| O=c1c(O)c(-c2ccc(O)c(O)c2)oc2cc(O)cc(O)c12 [Quercetin] | 2383 ± 258 | 3.27 ± 0.04 | – | change of rate constant compared with luteolin (in words) ([1]; versus luteolin): doubling; Reaction Stoichiometry for the reduction of galvinoxyl radical ([2]; listed as quercetin): 3.3 |
| CCCCCCCCCCCCc1ccc2c(=O)c(O)c(-c3cc(O)c(O)c(O)c3)oc2c1 [compound 9h, 3-Hydroxy-2-(3,4,5-trihydroxy-phenyl)-7-dodecyl-chromen-4-one] | – | – | 62.1021 | – |
| CCCCCCCCCc1cccc2c(=O)c(O)c(-c3cc(O)c(O)cc3O)oc12 [compound 14] | – | – | 104.4307 | – |
| CCCCCCCCCCCCCCCCCCc1ccc2c(=O)c(O)c(-c3cc(O)c(O)c(O)c3)oc2c1 [compound 9j, 3-Hydroxy-7-octadecyl-2-(3,4,5-trihydroxy-phenyl)-chromen-4-one] | – | – | 107.849 | – |
| O=c1c(O)c(-c2cc(O)c(O)c(O)c2)oc2cc(O)cc(O)c12 [Myricetin] | 14463 ± 1767 | 4.08 ± 0.01 | 147.6 and 147.6306 | reactivity with galvinoxyl (in words) [1]: fastest; membrane protection against TBARS production (in words) [3]: almost no protection; Reaction Stoichiometry for the reduction of galvinoxyl radical ([2]; listed as myricetin): 4.1 |
| CCc1ccc2c(=O)c(O)c(-c3cc(O)c(O)c(O)c3)oc2c1 [compound 9c, 7-Ethyl-3-hydroxy-2-(3,4,5-trihydroxy-phenyl)-chromen-4-one] | – | – | 117.461 | – |
| COc1ccc(-c2oc3cc(O)cc(O)c3c(=O)c2O)cc1O [Tamarixetin] | 165 ± 20 | 1.14 ± 0.03 | – | decrease in rate of reaction with galvinoxyl relative to quercetin [1]: 15 fold |
| O=c1c(O)c(-c2ccc(O)c(O)c2)oc2cc(O)ccc12 [Fisetin] | 1623 ± 199 | 3.68 ± 0.03 | – | – |
| O=c1c(O)c(-c2cc(O)c(O)c(O)c2)oc2ccccc12 [Control B] | – | – | 236.525 and 236.5249 | antioxidant activity by ESR (in words) ([1]; ESR, kinetic or stoichiometric not stated): retains potent antioxidant activity; membrane protection against TBARS production (in words) [3]: does not give rise to significant membrane protective effects; solubility in octanol (in words) (Solubility in octanol): very soluble in octanol |
| O=c1c(O)c(-c2ccccc2O)oc2cc(O)cc(O)c12 [Datiscetin] | 22 ± 2 | 1.74 ± 0.02 | – | Second order rate constants (k2) for the reduction of galvinoxyl radical ([1]; listed as datiscetin): 22 mol^−1 dm^3 s^−1; reduction in rate constant relative to kaempferol ([1]; fold reduction, versus kaempferol): 56 fold; Reaction Stoichiometry for the reduction of galvinoxyl radical ([2]; listed as datiscetin): ~1.8 |
| CCCCCCCCCCc1ccc2oc(-c3cc(O)c(O)c(O)c3)c(O)c(=O)c2c1 [compound 11g, 6-Decyl-3-hydroxy-2-(3,4,5-trihydroxy-phenyl)-chromen-4-one] | – | – | 81.82 | – |
| O=c1c(O)c(-c2cc(O)c(O)cc2O)oc2ccccc12 [Control C] | – | – | 186.6221 | – |
| CC(C)CCCC(C)CCCC(C)CCc1ccc2c(=O)c(O)c(-c3cc(O)c(O)c(O)c3)oc2c1 (stereo not shown) [compound 9i*, 3-Hydroxy-2-(3,4,5-trihydroxy-phenyl)-7-(3,7,11-trimethyl-dodecyl)-chromen-4-one] | – | – | 32.9769 | – |
| COc1cc(-c2oc3cc(O)cc(O)c3c(=O)c2O)cc(OC)c1OC [Tri-Ome-Myricetin, myricetin-3′,4′,5′-trimethylether] | 74 ± 14 | 1.06 ± 0.02 | – | – |
| O=c1c(O)c(-c2ccccc2)oc2cc(O)cc(O)c12 [Galangin] | 18 ± 1 | 1.01 ± 0.03 | – | reactivity with galvinoxyl (in words) [1]: reacted only very slowly |
| Catechin | 1574 ± 79 | 2.96 ± 0.01 | – | – |
| O=C1c2c(O)cc(O)cc2O[C@H](c2ccc(O)c(O)c2)[C@H]1O (racemic) [Taxifolin] | 337 ± 32 | 2.82 ± 0.05 | – | decrease in rate of reaction with galvinoxyl relative to quercetin [1]: 7 fold; reduction in rate compared with catechin ([1]; fold reduction, versus catechin): 5 fold; Reaction Stoichiometry for the reduction of galvinoxyl radical ([2]; listed as taxifolin): 2.8 |
| O=c1c(O)c(-c2ccc(O)c(O)c2O)oc2ccccc12 [Control D] | – | – | 172.0899 | – |
